The text below walks through data of patent publication US8008337B2, “Azabicyclo[3.2.0] hept-3-yl compounds, a process for their preparation and pharmaceutical compositions containing them” (Les Laboratoires Servier, priority 2009, dated 2011).

Holding throughout (assay type): in vivo
In test [1] the test system is Wistar rat. Nature of the test: Social recognition in the Wistar rat. The following applies: second encounter after 2 hours. An excerpt:
Initially described in 1982 (J. Comp. Physiol., 1982, 96, 1000-1006), the social recognition test has subsequently been proposed by various authors (Psychopharmacology, 1987, 91, 363-368; Psychopharmacology, 1989, 97, 262-268) for studying the mnemocognitive effects of new compounds. The test is based on the natural expression of the olfactory memory of the rat and its natural tendency to forget and allows evaluation of memorisation, by recognition of a young congeneric animal, by an adult rat. A young rat (21 days), taken at random, is placed for 5 minutes in the cage housing an adult rat. With the aid of a video device, the experimenter observes the social recognition behaviour of the adult rat and measures its overall duration. The young rat is then removed from the adult rat's cage and is placed in its own cage until the second introduction. The adult rat is given the compound under test by the intraperitoneal route and, after 2 hours, is again brought into the presence (5 minutes) of the young rat. The social recognition behaviour is then observed again and its duration measured. The assessment criterion is the difference (T2−T1), expressed in seconds, between the “recognition” times of the 2 encounters.

Test [2] concerns extracellular levels of dopamine. Kind of test: Intracerebral microdialysis in the striatum of the awake rat. The following applies: 10 mg/kg i.p., striatum microdialysate, awake Wistar rat. As for the experimental part:
Intracerebral microdialysis in the awake rat makes it possible to assess the influence of a compound on the release of neurotransmitters such as dopamine into the extracellular space of small cerebral structures, especially the striatum.
This technique is carried out in two steps: a surgery step (stereotaxic implantation of a cannula-guide carried out on the anaesthetised animal) and a microdialysis step carried out on the awake animal (collection of samples of extracellular cerebral liquid). Male rats of the Wistar strain (280-320 g) are anaesthetised and placed in a stereotaxic apparatus. A guide cannula is implanted in the striatum of the animals according to the following stereotaxic coordinates: antero-posteriority −1 mm, laterality +2.8 mm, depth −3 mm, relative to the bregma, according to the atlas of Paxinos and Watson (1996). One week after the surgery, a microdialysis probe (CMA11, length 4 mm, Phymep) is inserted into the guide cannula. The animals are placed in experimentation cages and the to probe inlet is connected to a pump continuously perfusing artificial cerebrospinal fluid (flow rate 1 μl/min). […] The extracellular levels of dopamine are assessed in each microdialysate using a liquid chromatographic technique coupled with electrochemical detection. The values are expressed as the mean±SEM relative to the baseline values (reference 100%).

For another test, the system named is NMRI mouse. Nature of the test: Tail suspension test in the NMRI mouse. As to conditions: 10 mg/kg IP, 24 hours and 30 minutes before suspension, 6 minutes. As for the experimental part: The tail suspension test in the mouse (Porsolt et al., Arch. Int. Pharmacodyn., 1987, 288, 11) enables detection of psychopharmacological properties of compounds. NMRI mice are suspended by the tail, with the aid of a piece of adhesive tape, from a hook for 6 minutes: the immobility time is measured automatically with the aid of movement sensors. The animals are treated, by the intraperitoneal route, with the compounds of the invention or their carriers 24 hours and 30 minutes before they are suspended.

A further test concerns Sprague-Dawley rat. Nature of the test: Object recognition in the Sprague-Dawley rat. As to conditions: 3 mg/kg PO 60 minutes before each session, second session 24 hours later. An excerpt:
The object recognition test in the Sprague-Dawley rat (Behav. Brain Res., 1988, 31, 47-59) is based on the spontaneous exploratory activity of the animal and has the characteristics of episodic memory in humans. This memory test is sensitive to ageing (Eur. J. Pharmacol., 1997, 325, 173-180) and to cholinergic dysfunctions (Pharm. Biochem. Behav. 1996, 53(2), 277-283) and is based on the differences in the exploration of 2 objects of fairly similar shape—one familiar, the other new. Prior to the test, the animals are habituated to the environment (an enclosure without an object). In the course of a first session, the rats are placed (3 minutes) in the enclosure, in which there are 2 identical objects. The duration of exploration is measured for each object. In the course of the second session (3 minutes), 24 hours later, 1 of the 2 objects is replaced by a new object. The duration of exploration is measured for each object. The assessment criterion is the difference, Delta, expressed in seconds, between the exploration times for the new object and for the familiar object in the course of the second session.

For test [3], the system named is Wistar rat. Nature of the test: Interaction with barbital in the Wistar rat. As to conditions: 10 mg/kg PO 30 minutes before barbital 170 mg/kg IP, sleep measured for 4 hours. The procedure:
The objective of this test is to determine the anti-sedative, awakening and/or anti-hypnotic properties of the compounds of the present invention. The rats are placed in individual cages and are given an injection of barbital (170 mg/kg IP). The duration of sleep is then measured for 4 hours after the injection of barbital, determined on the basis of loss of the righting reflex. The compounds of the invention or their carriers are administered by the oral route 30 minutes before the administration of barbital.

For a further test, the system named is awake Wistar rat. Nature of the test: Electroencephalogram recordings in the awake Wistar rat. The following applies: 3 mg/kg IP, cortical EEG. As for the experimental part: Electrodes are chronically implanted in adult male Wistar rats, being located at the surface of the frontal and parietal cortex. Cortical electroencephalogram (EEG) recordings are made in the rats placed in cages in a sound-proofed room. The compounds and carriers are administered in randomised manner by the intraperitoneal route at 10 o'clock on the same days with a minimum of 3 days between each administration, allowing each rat to be used as its own control. The absolute power of the slow delta activities (1-4 Hz), which predominate during slow sleep and disappear during wakefulness and paradoxical sleep, is averaged over successive periods of 30 minutes. Over 30 minutes, high and low values for the power of the slow delta activities are signs of […], respectively.

`Cl.NC(=O)c1ccc(OCCCN2C[C@H]3CC[C@H]3C2)cc1` [Example 1, 4-{3-[(1R,5S)-3-Azabicyclo[3.2.0]hept-3-yl]-propoxy}benzamide hydrochloride]: the “difference (T2−T1) between recognition times” value in the test with Wistar rat [1] (1 mg/kg IP) stood at 24 s. Besides, the “difference (T2−T1) between recognition times” value in the test on Wistar rat [1] (3 mg/kg IP) is 36 s. Further, the “increase in endogenous cerebral concentrations of dopamine (in comparison with basal values)” value in test [2] is listed as “+123%”. The “increase in the immobility time” value in the test on NMRI mouse is reported as 119%. The “difference, Delta, between exploration times for the new and the familiar object” value in the test with Sprague-Dawley rat was about 8 s. The “reduction of the duration of sleeping caused by barbital” value with Wistar rat [3] is −81%. Moreover, in the test on awake Wistar rat, the “duration of reduction in power of the slow delta waves” value is 120 min and the “effect on power of the slow delta waves (1-4 Hz)” value was “significant reduction”.
